Laboratory results: US9271978B2 (Zenith Epigenetics Corp., priority 2012, dated 2016)

Assays:
Set-up in all cases: key: Active: Compounds with an IC50 value less than 30 μM were deemed to be active.; Not Active: Compounds with an IC50 value less than 30 μM were deemed to be active
[1] = system: human AML MV-4-11 (CRL-9591) cells; assay: Inhibition of cell proliferation in MV4-11 cells; assay type: cell-based; settings: human AML MV-4-11 cells, 72 h; active = IC50 <30 μM
Protocol: MV4-11 cells: 96-well plates were seeded with 5×10^4 cells per well of exponentially growing human AML MV-4-11 (CRL-9591) cells and immediately treated with two-fold dilutions of test compounds, ranging from 30 μM to 0.2 μM. Triplicate wells were used for each concentration, as well as a media only and three DMSO control wells. The cells and compounds were incubated at 37° C., 5% CO2 for 72 h before adding 20 μL of the CellTiter Aqueous One Solution (Promega) to each well and incubating at 37° C., 5% CO2 for an additional 3-4 h. The absorbance was taken at 490 nm in a spectrophotometer and the percentage of proliferation relative to DMSO-treated cells was calculated after correction from the blank well. IC50 were calculated using the GraphPad Prism software.

[2] = target: T1, Brd4 bromodomain 1 (BRD4(1)) (Homo sapiens, UniProt O60885); assay: Inhibition of tetra-acetylated histone H4 binding to Brd4 bromodomain 1 (TR-FRET); settings: tetra-acetylated histone H4 peptide, active = IC50 <30 μM
T1 construct: Illustrative results with the first bromodomain of Brd4; made in house; host or cells: E. coli BL21 (DE3)
In short: (§1)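 N-terminally His-tagged bromodomains (200 nM), expressed in E. coli, were incubated with biotinylated tetra-acetylated histone H4 peptide (25-50 nM), Eu-cryptate streptavidin and XL665 anti-His antibody in HEPES pH 7.4 buffer with KF, 0.2% DMSO, 2 h at room temperature. Inhibition read as decreased 665/620 nm TR-FRET; IC50 from dose-response curves.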

[3] = system: c-myc; assay: Inhibition of c-myc expression in MV4-11 cells (mRNA, real-time PCR); assay type: cell-based; settings: Human AML MV4-11 cells, 3 h incubation
Protocol: MV4-11 cells (2.5×10^4 cells) were plated in 96 well U-bottom plates with test compound or DMSO (0.1%), and incubated for 3 h at 37° C. Cells were then harvested by centrifugation, lysed, and mRNA was isolated using the mRNA catcher plus kit (Invitrogen). Reverse transcription of the mRNA and duplex amplification of the c-myc and cyclophilin cDNAs was performed using the RNA Ultrasense kit (Invitrogen) and a ViiA7 real-time PCR machine (Applied Biosystems). IC50 values were determined from a dose response curve.

[4] = target: T2, second bromodomain of Brd2 (BRD2(2)) (Homo sapiens, UniProt P25440); assay: Inhibition of tetra-acetylated histone H4 binding to Brd2 bromodomain 2 (TR-FRET); settings: tetra-acetylated histone H4 peptide, active = IC50 <30 μM
T2 construct: made in house; host or cells: E. coli BL21 (DE3)
T2 sequence (P25440 344-453 limits assumed): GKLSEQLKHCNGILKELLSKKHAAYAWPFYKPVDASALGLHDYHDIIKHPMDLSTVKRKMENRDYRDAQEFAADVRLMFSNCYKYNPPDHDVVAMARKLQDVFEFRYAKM
In short: as §1

[5] = system: hIL-6 mRNA; assay: Inhibition of hIL-6 mRNA transcription in U937 cells; assay type: cell-based, human; settings: LPS stimulation, active = IC50 <30 μM
Protocol: In this example, hIL-6 mRNA in tissue culture cells was quantitated to measure the transcriptional inhibition of hIL-6 when treated with a compound of the present disclosure.
A human leukemic monocyte lymphoma cell line (U937) was plated (3.2×10^4 cells per well) in a 96-well plate in […] RPMI-1640 containing 10% FBS and penicillin/streptomycin, and differentiated into macrophages for 3 days in 60 ng/mL PMA ([…]) at 37° C. in 5% CO2 prior to the addition of the compound of interest. The cells were pretreated for 1 h with the test compound prior to stimulation with 1 ug/mL lipopolysaccharide from Escherichia coli. The cells were incubated at 37° C. for 3 h before the cells were harvested. At time of harvest, the spent media was removed from the cells and the cells were rinsed in […] PBS. Cell lysis solution (70 μL) was added the cells in each well and incubated for 5-10 min at room temperature, to allow for complete cell lysis and detachment. mRNA was then prepared using the “mRNA Catcher PLUS plate” (Invitrogen), according to the protocol supplied. After the last wash, as much wash buffer as possible was aspirated without allowing the wells to dry. Elution buffer (E3, 70 μL) was then added to each well. mRNA was then eluted by incubating the mRNA Catcher PLUS plate with Elution Buffer for 5 min at 68° C. and then immediately placing the plate on ice.
The eluted mRNA isolated was then used in a one-step quantitative real-time PCR reaction, using components of the Ultra Sense Kit together with Applied Biosystems primer-probe mixes. Real-time PCR data was analyzed, normalizing the Ct values for hIL-6 to an internal control, prior to determining the fold induction of each unknown sample, relative to the control.

Row | Cell Proliferation activity (IC50 <30 μM) [1] | FRET activity (IC50 <30 μM) BRD4(1) [2] | c-myc activity (IC50 <30 μM) [3] | FRET activity (IC50 <30 μM) BRD2(2) [4] | IL-6 activity (IC50 <30 μM) [5] | SMILES
1 | Not Active | Active | Not Active | Active | – | Cc1noc(C)c1-c1ccc(=O)n(Cc2ccccn2)n1 [Example 2, 6-(3,5-Dimethylisoxazol-4-yl)-2-(pyridin-2-ylmethyl)pyridazin-3(2H)-one]
2 | Active | Active | – | Active | Active | Cc1noc(C)c1-c1ccc(=O)n(Cc2ccccc2Cl)n1 [Example 26, 2-(2-Chlorobenzyl)-6-(3,5-dimethylisoxazol-4-yl)pyridazin-3(2H)-one]
3 | – | Active | Active | Active | – | CC(=O)Nc1cc(-c2c(C)noc2C)cn(Cc2ccccc2)c1=O [Example 71, N-(1-Benzyl-5-(3,5-dimethylisoxazol-4-yl)-2-oxo-1,2-dihydropyridin-3-yl)acetamide]
4 | – | Active | Active | Active | Active | Cc1noc(C)c1-c1ccc(=O)n(Cc2ccsc2)c1 [Example 79, 5-(3,5-Dimethylisoxazol-4-yl)-1-(thiophen-3-ylmethyl)pyridin-2(1H)-one]
5 | Not Active | Active | Not Active | Active | – | Cc1noc(C)c1-c1ccc(=O)n(Cc2c(F)cccc2F)n1 [Example 90, 2-(2,6-Difluorobenzyl)-6-(3,5-dimethylisoxazol-4-yl)pyridazin-3(2H)-one]
6 | Not Active | Active | Not Active | – | Not Active | COCc1noc(C)c1-c1ccc(=O)n(Cc2ccccc2)c1 [Example 187, 1-benzyl-5-(3-(methoxymethyl)-5-methylisoxazol-4-yl)pyridin-2(1H)-one]
7 | Not Active | Active | Not Active | – | Active | Cc1noc(C)c1-c1cc(Nc2ccccc2)c(=O)n(Cc2ccc(Cl)cc2)c1 [Example 188, 1-(4-chlorobenzyl)-5-(3,5-dimethylisoxazol-4-yl)-3-(phenylamino)pyridin-2(1H)-one]
8 | Active | Active | Active | – | Active | COc1cncc(Nc2cc(-c3c(C)noc3C)cn(Cc3ccccc3)c2=O)c1 [Example 231]
9 | Active | Active | Active | – | – | Cc1noc(C)c1-c1cc(N)c(=O)n(Cc2ccc(Cl)cn2)c1 [Example 255, 3-amino-1-((5-chloropyridin-2-yl)methyl)-5-(3,5-dimethylisoxazol-4-yl)pyridin-2(1H)-one]
10 | Active | Active | Active | – | – | Cc1noc(C)c1-c1cc(N)c(=O)n(Cc2ccc(C#N)cc2F)c1 [Example 261, 4-((3-amino-5-(3,5-dimethylisoxazol-4-yl)-2-oxopyridin-1(2H)-yl)methyl)-3-fluorobenzonitrile]

Further lines, the compound ahead of its results:

Row | SMILES | Cell Proliferation activity (IC50 <30 μM) [1] | FRET activity (IC50 <30 μM) BRD4(1) [2] | c-myc activity (IC50 <30 μM) [3] | FRET activity (IC50 <30 μM) BRD2(2) [4] | IL-6 activity (IC50 <30 μM) [5]
11 | Cc1noc(C)c1-c1ccc(=O)n(Cc2cccc(F)c2)n1 [Example 22, 6-(3,5-Dimethylisoxazol-4-yl)-2-(3-fluorobenzyl)pyridazin-3(2H)-one] | Not Active | Active | Not Active | Active | –
12 | Cc1noc(C)c1-c1cc(C)c(=O)n(Cc2ccncc2)n1 [Example 87, 6-(3,5-Dimethylisoxazol-4-yl)-4-methyl-2-(pyridin-4-ylmethyl)pyridazin-3(2H)-one] | Not Active | Active | – | Active | Not Active
13 | Cc1ccccc1Cn1cc(-c2c(C)noc2C)ccc1=O [Example 121, 5-(3,5-Dimethylisoxazol-4-yl)-1-(2-methylbenzyl)pyridin-2(1H)-one] | – | Active | Active | Active | Active
14 | Cc1noc(C)c1-c1ccc(=O)n(Cc2ccccc2C#N)c1 [Example 135, 2-((5-(3,5-Dimethylisoxazol-4-yl)-2-oxopyridin-1(2H)-yl)methyl)benzonitrile] | – | Active | Active | Active | –
15 | Cc1noc(C)c1-c1ccc(=O)n(Cc2ccc(Cl)cc2F)c1 [Example 139, 1-(4-Chloro-2-fluorobenzyl)-5-(3,5-dimethylisoxazol-4-yl)pyridin-2(1H)-one] | – | Active | – | Active | Active
16 | Cc1noc(C)c1-c1ccc(=O)n(Cc2ccc(Cl)c(F)c2)c1 [Example 141, 1-(4-Chloro-3-fluorobenzyl)-5-(3,5-dimethylisoxazol-4-yl)pyridin-2(1H)-one] | – | Active | – | Active | Active
17 | Cc1cncc(Nc2cc(-c3c(C)noc3C)cn(Cc3ccccc3)c2=O)c1 [Example 246, 1-benzyl-5-(3,5-dimethylisoxazol-4-yl)-3-((5-methylpyridin-3-yl)amino)pyridin-2(1H)-one] | Active | Active | – | – | –
18 | Cc1noc(C)c1-c1cc(N)c(=O)n(Cc2ccccc2)n1 [Example 250, 4-amino-2-benzyl-6-(3,5-dimethylisoxazol-4-yl)pyridazin-3(2H)-one] | Active | Active | – | – | Active
19 | Cc1noc(C)c1-c1cc(N)c(=O)n(Cc2ccc(C#N)c(F)c2)c1 [Example 262, 4-((3-amino-5-(3,5-dimethylisoxazol-4-yl)-2-oxopyridin-1(2H)-yl)methyl)-2-fluorobenzonitrile] | Active | Active | Active | – | –
